Data from patent publication US20080300554A1, “LUBRICANT FOR MEDICAL DEVICES” (APPLIED MEDICAL RESOURCES CORPORATION, priority 2007, published 2008).

Test: Lubricity durability after incubation in PBS at 70° C.
Type: physicochemical
Details: PBS at 70° C. for 20 hours
Procedure: Lacking a direct assay for PEI, an indirect measure of cross-linking effectiveness was selected. This method involved measuring the stability of the cross-linked coating when incubated in PBS at 70° C. for 20 hours. […] It was assumed that this durability was only possible if cross-linking had immobilized the PEI into a cross-linked matrix. PVP which cannot participate in this cross-linking was free to diffuse through the matrix to maintain lubricity. This assumption was further validated when the covalently cross-linked coating tested as non toxic.
Primary amines react readily with epoxides to form a secondary amine alcohol. Therefore, a multifunctional epoxide has the capability of cross-linking PEI into an immobile matrix EGDE (Sigma Chemical, ethylene glycol diglycidyl ether, E27203 50% technical grade) is a diepoxide with this capability. EGDE is readily soluble in water and isopropanol and can be applied to a coated sheath by a simple dip into an EGDE solution. Effectiveness of EGDE as a cross-linker of PEI was evaluated at 0.1% and 0.5% in aqueous and isopropanol solutions. Evidence of cross-linking was determined by the durability of lubricity after incubation in phosphate buffered saline (PBS) for 20+ hours at 70° C.
This test consisted of incubation of 6 inch segments of the coated sheaths in phosphate buffered saline (PBS) in 18×150 mm test tubes at 70° C. for 20-24 hours. […]

O=CCCCC=O [Glutaraldehyde]
Lubricity after incubation in PBS (lubricity durability): showed lubricity durability

polyethyleneglycol diglycidyl ether
Lubricity after incubation in PBS (lubricity durability): showed lubricity durability
